# Assay results reported in patent US11654096B2 (L'OREAL, priority 2017, dated 2023).
# Where “and” joins values, the source holds several entries; their conditions need not be identical. Equal values may be shown once.
# Key:
# Type in all cases: cell-based
# [1] = system: normal human epidermal keratinocytes (NHEKs); test: Neosynthesis of sulfated GAGs by NHEKs, [35S]-sulfate incorporation; conditions: for % Control / Mean (cpm) / [35S]-Sulfate (cpm): sulfated GAGs, NHEKs; for [35S]-Sulfate (cpm): single replicates
# Protocol: (§1) The effects of the compounds on the neosynthesis of total and sulfated glycosaminoglycans (GAGs) were studied on two cell models, normal human epidermal keratinocytes (NHEKs) and normal human dermal fibroblasts (NHDFs). The effects of these compounds were evaluated by measuring: • the incorporation of [3H]-glucosamine into the total GAGs neosynthesized by NHEKs and by NHDFs, • the incorporation of [35S]-sulfate into the sulfated GAGs neosynthesized by NHEKs and by NHDFs.
# (§2) The keratinocytes were seeded into wells and cultured in culture medium for 24 hours. The medium was then replaced with culture medium containing or not containing (control) the compounds to be tested or the reference (4-nitrophenyl β-D-xylopyranoside at 300 μM), then the cells were incubated for 72 hours with the addition of the [3H]-glucosamine radioactive label (total GAGs) or of the [35S]-sulfate radioactive label (sulfated GAGs) for the final 24 hours of incubation.
# (§3) At the end of the incubation, the glycosaminoglycans were extracted from the cells with a chaotropic buffer. The GAGs were then purified by ion exchange chromatography: adsorption of the anionic molecules on Q-Sepharose beads and desorption of the molecules of low or medium anionic nature, with a suitable solution.
# (§4) The radioactivity incorporated into the molecules left on the support (GAGs, predominantly) was measured by liquid scintillation.
# (§5) All the experimental conditions were performed in n=3.
# (§6) The inter-group comparisons were performed using Student's non-paired two-sided t-test. The statistical analyses can be interpreted if n≥5; however, for n<5, the data calculated are provided only by way of indication.
# [2] = system: normal human epidermal keratinocytes (NHEKs); test: Neosynthesis of total GAGs by NHEKs, [3H]-glucosamine incorporation; conditions: for % Control / Mean (cpm) / [3H]-glucosamine (cpm): total GAGs, NHEKs; for [3H]-glucosamine (cpm): single replicates
# Protocol: as §1, §2, §3, §4, §5, §6
# [3] = system: normal human dermal fibroblasts (NHDFs); test: Neosynthesis of total GAGs by NHDFs, [3H]-glucosamine incorporation; conditions: for % Control / Mean (cpm) / [3H]-glucosamine (cpm): total GAGs, NHDFs; for [3H]-glucosamine (cpm): single replicates
# Protocol: as §1
# (§7) The fibroblasts were seeded into wells and cultured in culture medium for 24 hours. The medium was then replaced with culture medium containing or not containing (controt) the compounds to be tested or the reference (TGF-β at 10 ng/ml), then the cells were incubated for 72 hours with the addition of the [35S]-sulfate radioactive label (sulfated GAGs) or of the [3H]-glucosamine radioactive label (total GAGs) for the final 24 hours of incubation.
# as §3, §4, §5, §6
# [4] = system: normal human dermal fibroblasts (NHDFs); test: Neosynthesis of sulfated GAGs by NHDFs, [35S]-sulfate incorporation; conditions: for % Control / Mean (cpm) / [35S]-Sulfate (cpm): sulfated GAGs, NHDFs; for [35S]-Sulfate (cpm): single replicates
# Protocol: as §1, §7, §3, §4, §5, §6
compound,measurement,setting,value
"O=[N+]([O-])c1ccc(O[C@@H]2OC[C@@H](O)[C@H](O)[C@H]2O)cc1 [4-Nitrophenyl β-D-xylopyranoside, 4-nitrophenyl β-D-xylopyranoside]",% Control,"[1]; campaign 1, 300 μM",922%
same,Mean (cpm),"[1]; campaign 1, 300 μM",62566 cpm
same,[35S]-Sulfate (cpm),"[1]; campaign 1, 300 μM",60267 cpm and 63396 cpm and 64036 cpm
same,% Control,"[1]; campaign 2, 300 μM",1029%
same,Mean (cpm),"[1]; campaign 2, 300 μM",54615 cpm
same,[35S]-Sulfate (cpm),"[1]; campaign 2, 300 μM, listed as 4-Nitrophenyl B-D-xylopyranoside",54440 cpm and 52841 cpm and 56564 cpm
same,% Control,"[2]; campaign 1, 300 μM",206%
same,Mean (cpm),"[2]; campaign 1, 300 μM",26611 cpm
same,[3H]-glucosamine (cpm),"[2]; campaign 1, 300 μM",26835 cpm and 26438 cpm and 26560 cpm
same,% Control,"[2]; campaign 2, 300 μM",243%
same,Mean (cpm),"[2]; campaign 2, 300 μM",20694 cpm
same,[3H]-glucosamine (cpm),"[2]; campaign 2, 300 μM",22239 cpm and 20953 cpm and 18891 cpm
"Oc1ccc(/C=C/c2cc(O)cc(O[C@@H]3OC[C@@H](O)[C@H](O)[C@H]3O)c2)cc1 [Compound 1a, 3-hydroxy-5-[(E)-2-(4-hydroxyphenyl)ethenyl]phenyl β-D-xylopyranoside]",% Control,"[3]; campaign 2, 10 μM",108%
same,Mean (cpm),"[3]; campaign 2, 10 μM",1684 cpm
same,[3H]-glucosamine (cpm),"[3]; campaign 2, 10 μM",1622 cpm and 1750 cpm and 1680 cpm
same,% Control,"[3]; campaign 2, 100 μM",90%
same,Mean (cpm),"[3]; campaign 2, 100 μM",1408 cpm
same,[3H]-glucosamine (cpm),"[3]; campaign 2, 100 μM",1422 cpm and 1331 cpm and 1470 cpm
same,% Control,"[1]; campaign 1, 10 μM",137%
same,Mean (cpm),"[1]; campaign 1, 10 μM",9319 cpm
same,[35S]-Sulfate (cpm),"[1]; campaign 1, 10 μM",9304 cpm and 9522 cpm and 9131 cpm
same,% Control,"[1]; campaign 1, 100 μM",839%
same,Mean (cpm),"[1]; campaign 1, 100 μM",56923 cpm
same,[35S]-Sulfate (cpm),"[1]; campaign 1, 100 μM",53801 cpm and 56728 cpm and 60239 cpm
same,% Control,"[1]; campaign 2, 10 μM",217%
same,Mean (cpm),"[1]; campaign 2, 10 μM",11501 cpm
same,[35S]-Sulfate (cpm),"[1]; campaign 2, 10 μM",10206 cpm and 12532 cpm and 11765 cpm
same,% Control,"[1]; campaign 2, 100 μM",973%
same,Mean (cpm),"[1]; campaign 2, 100 μM",51673 cpm
same,[35S]-Sulfate (cpm),"[1]; campaign 2, 100 μM",46568 cpm and 54125 cpm and 54327 cpm
same,% Control,"[4]; campaign 1, 10 μM",211%
same,Mean (cpm),"[4]; campaign 1, 10 μM",3472 cpm
same,[35S]-Sulfate (cpm),"[4]; campaign 1, 10 μM",3286 cpm and 3573 cpm and 3557 cpm
same,% Control,"[4]; campaign 1, 100 μM",537%
same,Mean (cpm),"[4]; campaign 1, 100 μM",8844 cpm
same,[35S]-Sulfate (cpm),"[4]; campaign 1, 100 μM",8753 cpm and 8534 cpm and 9244 cpm
same,% Control,"[4]; campaign 2, 10 μM",221%
same,Mean (cpm),"[4]; campaign 2, 10 μM",1254 cpm
same,[35S]-Sulfate (cpm),"[4]; campaign 2, 10 μM",1274 cpm and 1307 cpm and 1180 cpm
same,% Control,"[4]; campaign 2, 100 μM",411%
same,Mean (cpm),"[4]; campaign 2, 100 μM",2328 cpm
same,[35S]-Sulfate (cpm),"[4]; campaign 2, 100 μM",2237 cpm and 2369 cpm and 2379 cpm
same,% Control,"[2]; campaign 1, 10 μM",117%
same,Mean (cpm),"[2]; campaign 1, 10 μM",15165 cpm
same,[3H]-glucosamine (cpm),"[2]; campaign 1, 10 μM",14440 cpm and 15184 cpm and 15871 cpm
same,% Control,"[2]; campaign 1, 100 μM",235%
same,Mean (cpm),"[2]; campaign 1, 100 μM",30380 cpm
same,[3H]-glucosamine (cpm),"[2]; campaign 1, 100 μM",30079 cpm and 29149 cpm and 31911 cpm
same,% Control,"[2]; campaign 2, 10 μM",134%
same,Mean (cpm),"[2]; campaign 2, 10 μM",11405 cpm
same,[3H]-glucosamine (cpm),"[2]; campaign 2, 10 μM",10145 cpm and 11857 cpm and 12213 cpm
same,% Control,"[2]; campaign 2, 100 μM",199%
same,Mean (cpm),"[2]; campaign 2, 100 μM",16980 cpm
same,[3H]-glucosamine (cpm),"[2]; campaign 2, 100 μM",16745 cpm and 16574 cpm and 17621 cpm
Oc1ccc(C=Cc2cc(O)cc(O)c2)cc1 [Resveratrol],effect on the neosynthesis of the total GAGs by the NHDFs (in words),[3]; tested at 10 and 100 μM,overall inhibited
same,% Control,"[3]; campaign 2, 10 μM",98%
same,Mean (cpm),"[3]; campaign 2, 10 μM",1534 cpm
same,[3H]-glucosamine (cpm),"[3]; campaign 2, 10 μM",1439 cpm and 1533 cpm and 1630 cpm
same,% Control,"[3]; campaign 2, 100 μM",86%
same,Mean (cpm),"[3]; campaign 2, 100 μM",1339 cpm
same,[3H]-glucosamine (cpm),"[3]; campaign 2, 100 μM",1253 cpm and 1360 cpm and 1404 cpm
same,% Control,"[1]; campaign 1, 10 μM",77%
same,Mean (cpm),"[1]; campaign 1, 10 μM",5254 cpm
same,[35S]-Sulfate (cpm),"[1]; campaign 1, 10 μM",5238 cpm and 5506 cpm and 5018 cpm
same,% Control,"[1]; campaign 1, 100 μM",27%
same,Mean (cpm),"[1]; campaign 1, 100 μM",1802 cpm
same,[35S]-Sulfate (cpm),"[1]; campaign 1, 100 μM",1836 cpm and 1725 cpm and 1845 cpm
same,Mean (cpm),"[1]; campaign 2, 1 μM",6530 cpm
same,[35S]-Sulfate (cpm),"[1]; campaign 2, 1 μM",6885 cpm and 6817 cpm and 5888 cpm
same,% Control,"[1]; campaign 2, 10 μM",94%
same,Mean (cpm),"[1]; campaign 2, 10 μM",4973 cpm
same,[35S]-Sulfate (cpm),"[1]; campaign 2, 10 μM",5137 cpm and 4981 cpm and 4802 cpm
same,effect on the neosynthesis of the sulfated GAGs by the NHEKs (in words),[1]; tested at 10 and 100 μM,"inhibited, in a concentration-dependent manner"
same,% Control,"[4]; campaign 1, 10 μM",93%
same,Mean (cpm),"[4]; campaign 1, 10 μM",1527 cpm
same,[35S]-Sulfate (cpm),"[4]; campaign 1, 10 μM",1506 cpm and 1556 cpm and 1519 cpm
same,% Control,"[4]; campaign 1, 100 μM",62%
same,Mean (cpm),"[4]; campaign 1, 100 μM",1019 cpm
same,[35S]-Sulfate (cpm),"[4]; campaign 1, 100 μM",967 cpm and 1045 cpm and 1046 cpm
same,% Control,"[4]; campaign 2, 10 μM",101%
same,Mean (cpm),"[4]; campaign 2, 10 μM",571 cpm
same,[35S]-Sulfate (cpm),"[4]; campaign 2, 10 μM",613 cpm and 513 cpm and 586 cpm
same,% Control,"[4]; campaign 2, 100 μM",54%
same,Mean (cpm),"[4]; campaign 2, 100 μM",305 cpm
same,[35S]-Sulfate (cpm),"[4]; campaign 2, 100 μM",355 cpm and 283 cpm and 276 cpm
same,effect on the neosynthesis of the sulfated GAGs by the NHDFs (in words),[4]; tested at 10 and 100 μM,overall inhibited
same,effect on the neosynthesis of the total GAGs by the NHEKs (in words),[2]; tested at 10 and 100 μM,"inhibited, in a concentration-dependent manner"
same,% Control,"[2]; campaign 1, 10 μM",64%
same,Mean (cpm),"[2]; campaign 1, 10 μM",8328 cpm
same,[3H]-glucosamine (cpm),"[2]; campaign 1, 10 μM",7566 cpm and 8537 cpm and 8880 cpm
same,% Control,"[2]; campaign 1, 100 μM",13%
same,Mean (cpm),"[2]; campaign 1, 100 μM",1743 cpm
same,[3H]-glucosamine (cpm),"[2]; campaign 1, 100 μM",1509 cpm and 1754 cpm and 1967 cpm
same,% Control,"[2]; campaign 2, 1 μM",113%
same,Mean (cpm),"[2]; campaign 2, 1 μM",9628 cpm
same,[3H]-glucosamine (cpm),"[2]; campaign 2, 1 μM",10734 cpm and 10012 cpm and 8137 cpm
same,% Control,"[2]; campaign 2, 10 μM",86%
same,Mean (cpm),"[2]; campaign 2, 10 μM",7347 cpm
same,[3H]-glucosamine (cpm),"[2]; campaign 2, 10 μM",6772 cpm and 7143 cpm and 8126 cpm
